Earlier results in patent US11591275B2, “Smart release potash fertilizer granules” (RYNAN TECHNOLOGIES PTE LTD, priority 2018, dated 2023).

Conditions: for pKa: of the organic acid in the extended release layer

Row | pKa | pKa* of associated acids (acid associated with the anion pendant group of the anti-caking copolymer) | SMILES
1 | 4.10 |  | O=C(O)C(=O)O [Oxalic Acid]
2 | 4.23 | 4.23 | O=C(O)Cc1cccc2ccccc12 [1-Naphthalene Acetic Acid, 1-Naphthalene acetic acid]
